This is an account of results in patent publication US11492357B2, “Thieno[3,2-d]pyrimidine derivative compound having inhibitory activity for protein kinase” (Hanmi Pharm. Co., Ltd., priority 2017, dated 2022).

Molecules are shown by their SMILES. Counter-ions that a name gives are not always drawn.

One experiment has as its target RAF1 (C-RAF) Y340D/Y341D (Homo sapiens (Human), UniProt P04049, Y340D/Y341D). The experiment can be described thus: RAF kinase inhibitory activity, Kinase Profiling Service. It is filed as biochemical. How it is done:
(§1) The levels of enzymatic inhibition of the compound were calculated as percent inhibition at various concentrations. Based on percent inhibition, dose-response curves were plotted using GraphPad Prism software.

The next experiment addresses B-RAF V600E (Homo sapiens (Human), UniProt P15056, V600E). The description is as above. It is filed as biochemical. How it is done: as §1
Another experiment has as its target B-RAF wild type (Homo sapiens (Human), UniProt P15056). The experiment is described as above. The format is biochemical. To be noted: read-out: B-RAF WT (IC50). How it is done: as §1
The test system of experiment [1] is SK-MEL-30 melanoma cells (N-RAS Q61K mutant). In words: Inhibition of cell growth of N-RAS Q61K mutant SK-MEL-30 cells (SRB). It is filed as cell-based. The conditions noted are these: Homo sapiens, 72 hours incubation, SRB staining. Here is the method:
N-RAS^Q61K mutant SK-MEL-30 melanoma cell line (ACC-151) was obtained from DSMZ (Deutsche Sammlung von Mikroorganismen und Zellkulturen GmbH, Germany). SK-MEL30 cells express wildtype B-RAF and mutant N-RAS (Q61K). SK-MEL-30 cells were incubated in a RPMI medium supplemented with 10% FBS and 1% penicillin/streptomycin (Gibco BRL) under 37° C., 5% CO2 and 95% air. Cells were seeded in 96-well plates at a density of 5,000 cells/well, and cultured for 18 hours or more. Then cells were treated with 0.1-10 μM (1/10 serial dilution) of test compounds, and incubated for 72 hours.
To evaluate cell viabilities, SK-MEL-30 cell lines were fixed with 10% TCA (trichloroacetic acid), stained with SRB (sulforhodamine B), and the absorbance was measured at 540 nm. Then, GI50, i.e., the concentration of drug to cause 50% reduction in proliferation of cancer cells, was calculated therefrom. The growth rates of cancer cells were calculated by Equation 1 or 2. [(Ti−Tz)/(C−Tz)]×100 (for […]) Equation 1 [(Ti−Tz)/Tz]×100 (for Ti<Tz) Equation 2
In Equation 1 and 2, ‘Tz’ refers to the density of untreated cells, which is the absorbance in 0% cell growth groups. ‘C’ refers to the density of cells cultured by adding only medium, and ‘Ti’ refers to the density of cells treated with test compounds. […]
In general terms: The SRB assay estimates cell density from bound dye.

Sequence of RAF1 (C-RAF) Y340D/Y341D (P04049 whole entry Y340D/Y341D): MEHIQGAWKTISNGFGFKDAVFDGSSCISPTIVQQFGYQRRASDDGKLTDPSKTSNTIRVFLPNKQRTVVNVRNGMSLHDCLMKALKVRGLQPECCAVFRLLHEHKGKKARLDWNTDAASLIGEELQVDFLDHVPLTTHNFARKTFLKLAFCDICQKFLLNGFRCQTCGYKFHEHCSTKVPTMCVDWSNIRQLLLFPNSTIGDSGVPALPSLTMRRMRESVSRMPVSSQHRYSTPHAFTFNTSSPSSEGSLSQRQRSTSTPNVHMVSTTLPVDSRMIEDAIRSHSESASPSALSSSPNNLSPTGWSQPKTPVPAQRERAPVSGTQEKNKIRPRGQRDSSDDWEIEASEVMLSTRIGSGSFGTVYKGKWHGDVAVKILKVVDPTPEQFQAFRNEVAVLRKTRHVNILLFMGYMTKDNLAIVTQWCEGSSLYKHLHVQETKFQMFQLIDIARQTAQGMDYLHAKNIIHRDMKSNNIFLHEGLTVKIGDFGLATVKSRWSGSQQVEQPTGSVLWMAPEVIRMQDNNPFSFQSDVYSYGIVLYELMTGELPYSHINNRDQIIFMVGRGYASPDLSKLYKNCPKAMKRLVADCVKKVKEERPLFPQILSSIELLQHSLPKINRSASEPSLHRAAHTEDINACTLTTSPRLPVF
Sequence of B-RAF wild type (P15056 whole entry): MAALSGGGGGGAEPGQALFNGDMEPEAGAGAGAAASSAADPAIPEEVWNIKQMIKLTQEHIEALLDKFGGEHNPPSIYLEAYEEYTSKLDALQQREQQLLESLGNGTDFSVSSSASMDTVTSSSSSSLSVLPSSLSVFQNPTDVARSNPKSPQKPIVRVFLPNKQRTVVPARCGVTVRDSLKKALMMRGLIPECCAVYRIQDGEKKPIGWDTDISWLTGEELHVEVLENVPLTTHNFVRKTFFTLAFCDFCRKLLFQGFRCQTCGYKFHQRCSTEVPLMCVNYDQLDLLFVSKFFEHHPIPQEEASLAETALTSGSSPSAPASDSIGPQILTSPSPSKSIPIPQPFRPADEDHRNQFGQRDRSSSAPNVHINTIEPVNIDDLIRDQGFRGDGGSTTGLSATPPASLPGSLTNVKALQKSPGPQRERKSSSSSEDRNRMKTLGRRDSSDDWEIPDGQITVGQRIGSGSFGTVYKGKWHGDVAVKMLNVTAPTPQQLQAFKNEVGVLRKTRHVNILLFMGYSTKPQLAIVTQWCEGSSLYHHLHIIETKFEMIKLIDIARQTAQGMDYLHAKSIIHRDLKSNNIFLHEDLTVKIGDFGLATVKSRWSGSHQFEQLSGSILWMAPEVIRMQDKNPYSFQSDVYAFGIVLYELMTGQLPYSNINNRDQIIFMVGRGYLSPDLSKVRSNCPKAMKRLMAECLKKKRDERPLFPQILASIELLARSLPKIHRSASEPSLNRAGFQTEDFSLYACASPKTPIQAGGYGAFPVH
Sequence of B-RAF V600E (P15056 whole entry V600E): as the sequence (P15056 whole entry) above, with V600E counted along it

As usually defined, the IC50 is the point on the concentration scale where inhibition reaches its midpoint. Broadly, the GI50 is the concentration that inhibits growth by half. With `Cc1ccc2c(Nc3ccc(O)c(Cl)c3F)nccc2c1NC(=O)c1csc2c(N)ncnc12` [Compound•2HCl, 4-amino-N-(1-((3-chloro-2-fluoro-4-hydroxyphenyl)amino)-6-methylisoquinolin-5-yl)thieno[3,2-d]pyrimidine-7-carboxamide dihydrochloride], the results for the IC50 on RAF1 (C-RAF) Y340D/Y341D, against B-RAF V600E and at B-RAF wild type were 21 nM, 30 nM and 392 nM, respectively. Moreover, the GI50 in experiment [1] was determined as 231 nM.
In the case of `CCCS(=O)(=O)Nc1ccc(F)c(C(=O)c2c[nH]c3ncc(-c4ccc(Cl)cc4)cc23)c1F` [Control, vemurafenib, reference compound], in experiment [1], the GI50 is more than 10000 nM.
